Measured values: patent US11253525B2, “Inhibitors of indoleamine 2,3-dioxygenase and methods of their use” (BRISTOL-MYERS SQUIBB COMPANY, priority 2018, dated 2022)

target: T1, indoleamine 2,3-dioxygenase (IDO) (Homo sapiens, UniProt P14902); experiment: HeLa cell-based indoleamine 2,3-dioxygenase (IDO) assay, kynurenine production; settings: HeLa cells, IFNγ 25 ng/mL, 48 hour incubation; read-out: IDO Hela IC50
T1 construct: replaced with media containing IFNγ (#285-IF/CF, R&D Systems) at a final concentration of 25 ng/mL; endogenous in cells; host or cells: HeLa (ATCC CCL-2), IFN-gamma stimulated
Protocol: Assessment of Inhibitor Activity in HeLa Cell-Based Indoleamine 23-Dioxygenase (IDO) Assay
Cells were maintained in a humidified incubator at 37° C. in 5% CO2.
IDO activity was assessed as a function of kynurenine production as follows: HeLa cells were seeded in a 96-well culture plate at a density of 5,000 cells/well and allowed to equilibrate overnight. […] A serial dilution of each test compound was added to the cells in a total volume of 200 μL of culture medium. After a further 48 hour incubation, 170 μL of supernatant was transferred from each well to a fresh 96-well plate. 12.1 μL of 6.1N trichloroacetic acid (#T0699, Sigma-Aldrich) was added to each well and mixed, followed by incubation at 65° C. for 20 minutes to hydrolyze N-formylkynurenine, the product of indoleamine 2,3-dioxygenase, to kynurenine. The reaction mixture was then centrifuged for 10 mins at 500×g to sediment the precipitate. 100 μL of the supernatant was transferred from each well to a fresh 96-well plate. […] Kynurenine concentrations were determined by measuring absorbance at 480 nm and calibrating against an L-kynurenine (#K8625, Sigma-Aldrich) standard curve using a SPECTRAMAX® M2e microplate reader (Molecular Devices). The percentage activity at each inhibitor concentration was determined and IC50 values assessed using nonlinear regression.

T1 sequence (P14902 whole entry): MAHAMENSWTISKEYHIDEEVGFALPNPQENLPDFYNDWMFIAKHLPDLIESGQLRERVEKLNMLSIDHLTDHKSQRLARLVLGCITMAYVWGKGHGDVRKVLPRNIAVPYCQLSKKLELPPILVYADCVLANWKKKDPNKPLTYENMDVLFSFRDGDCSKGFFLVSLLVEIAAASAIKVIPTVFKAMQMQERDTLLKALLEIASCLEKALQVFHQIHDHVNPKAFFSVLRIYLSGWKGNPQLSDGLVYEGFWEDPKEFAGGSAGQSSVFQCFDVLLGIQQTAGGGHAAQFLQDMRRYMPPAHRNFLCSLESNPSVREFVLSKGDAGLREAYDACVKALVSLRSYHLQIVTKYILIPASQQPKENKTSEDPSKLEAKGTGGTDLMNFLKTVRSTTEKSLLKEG

IC50 | Structure (SMILES)
610 nM | CCO[C@H](c1ccc([C@H](CC)CC(=O)O)cc1Nc1cnc(COC)nc1)C(F)(F)F (single isomer, unassigned) [Example 16]
580 nM | CCO[C@H](c1ccc([C@@H](CC)CC(=O)O)cc1NC(=O)Nc1ccc(C)cc1)C(F)(F)F (single isomer, unassigned) [Example 19]
10 nM | CCO[C@H](c1ccc([C@@H](CC)CC(=O)O)cc1NC(=O)Nc1ccc(Cl)cc1F)C(F)(F)F (single isomer, unassigned) [Example 20]
10 nM | CCO[C@H](c1ccc([C@@H](CC)CC(=O)O)cc1Nc1cnc(OC)nc1)C(F)(F)F (single isomer, unassigned) [Example 22]
10 nM | CCO[C@H](c1ccc([C@@H](CC)CC(=O)O)cc1Nc1cnc(OC)cn1)C(F)(F)F (single isomer, unassigned) [Example 25]
90 nM | CCO[C@H](c1ccc([C@@H](CC)CC(=O)O)cc1Nc1cnc(COC)nc1)C(F)(F)F (single isomer, unassigned) [Example 27]
20 nM | CCO[C@H](c1ccc([C@@H](CC)CC(=O)O)cc1Nc1cnc(CC)nc1)C(F)(F)F (single isomer, unassigned) [Example 29]
20 nM | CCO[C@@H](c1ccc([C@H](CC)CC(=O)O)cc1NC(=O)Nc1ccc(C)cc1)C(F)(F)F (single isomer, unassigned) [Example 31]
30 nM | CCO[C@@H](c1ccc([C@H](CC)CC(=O)O)cc1Nc1cnc(OC)nc1)C(F)(F)F (single isomer, unassigned) [Example 33]
610 nM | CCO[C@@H](c1ccc([C@H](CC)CC(=O)O)cc1Nc1cnc(COC)nc1)C(F)(F)F (single isomer, unassigned) [Example 38]
100 nM | CCO[C@@H](c1ccc([C@H](CC)CC(=O)O)cc1Nc1cnc(C)nc1)C(F)(F)F (single isomer, unassigned) [Example 39]
20 nM | CCO[C@@H](c1ccc([C@H](CC)CC(=O)O)cc1Nc1cnc(CC)nc1)C(F)(F)F (single isomer, unassigned) [Example 40]
20 nM | CCO[C@@H](c1ccc([C@@H](CC)CC(=O)O)cc1NC(=O)Nc1ccc(C)cc1)C(F)(F)F (single isomer, unassigned) [Example 41]
10 nM | CCO[C@@H](c1ccc([C@@H](CC)CC(=O)O)cc1Nc1cnc(OC)nc1)C(F)(F)F (single isomer, unassigned) [Example 43]
30 nM | CCOc1ncc(Nc2cc([C@@H](CC)CC(=O)O)ccc2[C@H](OCC)C(F)(F)F)cn1 (single isomer, unassigned) [Example 45]
440 nM | CCO[C@@H](c1ccc([C@@H](CC)CC(=O)O)cc1Nc1cnc(COC)nc1)C(F)(F)F (single isomer, unassigned) [Example 49]

IC50 | Structure (SMILES)
20 nM | CCO[C@@H](c1ccc([C@@H](CC)CC(=O)O)cc1Nc1ccc(F)cc1)C(F)(F)F (single isomer, unassigned) [Example 51]
230 nM | CCOC(c1ccc(C(COC)CC(=O)O)cc1NC(=O)Nc1ccc(C)cc1)C(F)(F)F (single isomer, unassigned) [Example 52]
40 nM | CCO[C@H](c1ccc([C@H](COC)CC(=O)O)cc1NC(=O)Nc1ccc(Cl)cc1F)C(F)(F)F (single isomer, unassigned) [Example 53]
10 nM | CCO[C@H](c1ccc([C@H](COC)CC(=O)O)cc1Nc1ccc(C#N)c(F)c1)C(F)(F)F (single isomer, unassigned) [Example 55]
20 nM | CCO[C@H](c1ccc([C@H](COC)CC(=O)O)cc1Nc1ccc(Cl)cc1)C(F)(F)F (single isomer, unassigned) [Example 58]
910 nM | CCO[C@H](c1ccc([C@@H](COC)CC(=O)O)cc1NC(=O)Nc1ccc(C)cc1)C(F)(F)F (single isomer, unassigned) [Example 60]
190 nM | CCO[C@H](c1ccc([C@@H](COC)CC(=O)O)cc1NC(=O)Nc1ccc(Cl)cc1F)C(F)(F)F (single isomer, unassigned) [Example 61]
40 nM | CCO[C@H](c1ccc([C@@H](COC)CC(=O)O)cc1Nc1cnc(OC)nc1)C(F)(F)F (single isomer, unassigned) [Example 62]
10 nM | CCO[C@H](c1ccc([C@@H](COC)CC(=O)O)cc1Nc1ccc(C#N)cc1)C(F)(F)F (single isomer, unassigned) [Example 65]
410 nM | CCO[C@H](c1ccc([C@@H](COC)CC(=O)O)cc1Nc1cnc(C)nc1)C(F)(F)F (single isomer, unassigned) [Example 67]
240 nM | CCO[C@@H](c1ccc([C@H](COC)CC(=O)O)cc1NC(=O)Nc1ccc(Cl)cc1F)C(F)(F)F (single isomer, unassigned) [Example 68]
620 nM | CCO[C@@H](c1ccc([C@H](COC)CC(=O)O)cc1Nc1cnc(OC)nc1)C(F)(F)F (single isomer, unassigned) [Example 69]
10 nM | CCO[C@@H](c1ccc([C@H](COC)CC(=O)O)cc1Nc1ccc(Cl)cc1)C(F)(F)F (single isomer, unassigned) [Example 72]
40 nM | CCO[C@@H](c1ccc([C@@H](COC)CC(=O)O)cc1NC(=O)Nc1ccc(Cl)cc1F)C(F)(F)F (single isomer, unassigned) [Example 75]
700 nM | CCO[C@@H](c1ccc([C@@H](COC)CC(=O)O)cc1Nc1cnc(OC)nc1)C(F)(F)F (single isomer, unassigned) [Example 76]
30 nM | CCO[C@@H](c1ccc([C@@H](COC)CC(=O)O)cc1Nc1ccc(C#N)c(F)c1)C(F)(F)F (single isomer, unassigned) [Example 77]

same assay, conditions: HeLa cells, IFNγ 25 ng/mL, 48 hour incubation; read-out: IDO Hela IC50 class (A < 50, B < 250, C < 2000)

IC50 | Structure (SMILES)
< 50 nM | CCO[C@H](c1ccc([C@@H](CC)CC(=O)O)cc1Nc1ccc(C#N)cc1)C(F)(F)F (single isomer, unassigned) [Example 26]
< 50 nM | CCO[C@H](c1ccc([C@@H](CC)CC(=O)O)cc1Nc1cnc(C)nc1)C(F)(F)F (single isomer, unassigned) [Example 28]
< 50 nM | CCO[C@@H](c1ccc([C@H](CC)CC(=O)O)cc1NC(=O)Nc1ccc(Cl)cc1F)C(F)(F)F (single isomer, unassigned) [Example 32]
< 50 nM | CCO[C@@H](c1ccc([C@H](CC)CC(=O)O)cc1Nc1ccc(C#N)cc1)C(F)(F)F (single isomer, unassigned) [Example 37]
< 50 nM | CCO[C@@H](c1ccc([C@@H](CC)CC(=O)O)cc1Nc1ccc(F)cc1)C(F)(F)F (single isomer, unassigned) [Example 51]
250 to 2000 nM | CCO[C@H](c1ccc([C@H](COC)CC(=O)O)cc1Nc1ncc(F)cn1)C(F)(F)F (single isomer, unassigned) [Example 56]
250 to 2000 nM | CCO[C@H](c1ccc([C@H](COC)CC(=O)O)cc1Nc1cnc(C)nc1)C(F)(F)F (single isomer, unassigned) [Example 59]
< 50 nM | CCO[C@H](c1ccc([C@@H](COC)CC(=O)O)cc1Nc1ccc(Cl)cc1)C(F)(F)F (single isomer, unassigned) [Example 66]
250 to 2000 nM | CCO[C@@H](c1ccc([C@H](COC)CC(=O)O)cc1Nc1ncc(F)cn1)C(F)(F)F (single isomer, unassigned) [Example 71]
250 to 2000 nM | CCO[C@@H](c1ccc([C@H](COC)CC(=O)O)cc1Nc1cnc(C)nc1)C(F)(F)F (single isomer, unassigned) [Example 74]
